# Data taken from patent US12648945B2, “Compositions and methods for treating systemic lupus erythematosus” (ASCENTAGE PHARMA (SUZHOU) CO., LTD., priority 2020, dated 2026).
# Experiments:
# [1] = tested on: MRL/lpr mice; assay: Flow cytometry lymphocyte counts in PBMC, spleen and kidney of MRL/lpr mice; assay type: in vivo, mouse; details: 100 mg/kg po qd
# From the text: (§1) Female MRL/MpJ-Fas lpr/J mice (18-20 g, 7-8 weeks old) were obtained from The Jackson Laboratory. These mice are homozygous for the lymphoproliferation spontaneous mutation (Fas^lpr), and show systemic autoimmunity, massive lymphadenopathy associated with proliferation of aberrant T cells, arthritis, and immune complex glomerulonephrosis. Thus, these mice are useful as a model in the study of systemic lupus erythematosus (SLE).
# (§2) Animals were housed and handled in a temperature-controlled environment with a 12-h light/12-h dark cycle. […] The protocols and procedures involving the care and use of animals were approved by the Institutional Animal Care and Use Committee (IACUC) of WuXiAppTec (Shanghai) Co., Ltd. (Shanghai, China).
# The spleens and kidneys were harvested from the mice at the conclusion of the study (week 18) and digested into single-cell suspensions. Peripheral blood mononuclear cell (PBMC) were obtained after lysing red blood cells in the whole blood. Cells were stained with the following florescence-labelled antibodies: PerCP-Cyanine5.5-conjugated anti-mouse CD8a (BD Biosciences), AF700-conjugated anti-mouse CD3 (BD Biosciences), PE-eFluor610-conjugated anti-mouse B220 (BD Biosciences), e506-conjugated anti-mouse CD45 (BD Biosciences), BV605-conjugated anti-mouse CD138 (BioLegend), and BV711-conjugated anti-mouse CD4 (BioLegend).
# All cells were primarily gated on live lymphocytes based on forward scatter (FCS) and side scatter (SSC). Samples were analyzed on a flow cytometer (BD FACSCalibur, USA) to count the number of each subtype of lymphocytes.
# Of note, the reduction of double negative T cells were most significant compared to other lymphocytes. […] Without being bound by theory, the reduced infiltration by pro-inflammatory CD4+ cells and double-negative T cells may be responsible in part for the observed efficacy in treating lupus nephritis.
# [2] = tested on: MRL/lpr mice; assay: Serum anti-dsDNA autoantibody ELISA in MRL/lpr mouse model of SLE; assay type: in vivo; details: end of study
# From the text: as §1, §2
# Anti-dsDNA autoantibody levels were measured by ELISA. Briefly, a 96-well flat plate was coated with 10 μg/mL calf thymus ds-DNA (Sigma-Aldrich, MA, USA) at 4° C. overnight. After washing with PBS containing 0.05% Tween 20 (PBS-T) and blocking with 1% bovine serum albumin, serum samples (4000× dilution) were added and incubated for 1 h at room temperature. […] Lastly, ultra TMB-ELISA substrate solution (Pierce Biotechnology, IL, USA) was added and incubated for another 30 min, and the OD values at […] were recorded after the reaction was stopped.
# [3] = tested on: MRL/lpr mice; assay: Urine protein (Coomassie Brilliant Blue assay) in MRL/lpr mouse model of SLE; assay type: in vivo; details: week 18
# From the text: as §1, §2
# Urine protein was individually evaluated in each mouse on a biweekly basis using Coomassie Brilliant Blue (CBB) assay with a urine protein test kit (Nanjing Jiancheng Biotechnology Institute, Jiangsu, China).
# [4] = tested on: MRL/lpr mice; assay: Lymph node (lymphadenopathy) score in MRL/lpr mouse model of SLE; assay type: in vivo; details: week 18, p<0.0001 vs vehicle
# From the text: as §1, §2
# Lymph nodes were scored weekly throughout the study, and were expressed using a scoring system from 0 to 6 based on the diameter of lymph nodes (0—normal; 1—<1 cm in one site; 2—<1 cm in two sites; 3—<1 cm in three sites; 4—>1 cm in one site and <1 cm in two sites); 5—>1 cm in two sites and <1 cm in one site; 6—>1 cm in three sites).
# [5] = tested on: MRL/lpr mice; assay: Skin lesion score in MRL/lpr mouse model of SLE; assay type: in vivo; details: week 18, p<0.0001 vs vehicle
# From the text: as §1, §2
# Skin lesions were scored every week starting from week 12 and were expressed using a scoring system from 0 to 4 (0—normal; 1—small lesion with diameter between 2 to 4 mm; 2—lesion area
# <0.5 cm^2; 3—lesion area between 0.5 cm^2 to 1 cm^2; 4—lesion area >1 cm^2).
# [6] = tested on: MRL/lpr mice; assay: Kidney histopathological scores of lupus nephritis in MRL/lpr mouse model of SLE; assay type: in vivo; details: week 18
# From the text: as §1, §2
# At the end of the study, the spleen and lymph nodes were collected and weighed. […] The histopathological score was evaluated microscopically in a blinded manner, vide infra.
# The histopathological score was evaluated microscopically in a blinded manner. The […] glomerulonephritis score (GN score) was evaluated using scoring from 0 to 4 (0—normal; 1—mild, focal or early proliferation; 2—moderate or definite proliferation and increased matrix; 3—diffuse and focal or diffuse proliferation; 4—severe diffuse proliferation with crescent/sclerosis). […]
# [7] = target: Mcl-1 (Homo sapiens, UniProt Q07820); assay: FP saturation binding of fluorescent probe to Mcl-1; details: 2 nM probe
# Sequence of Mcl-1 (Q07820 whole entry): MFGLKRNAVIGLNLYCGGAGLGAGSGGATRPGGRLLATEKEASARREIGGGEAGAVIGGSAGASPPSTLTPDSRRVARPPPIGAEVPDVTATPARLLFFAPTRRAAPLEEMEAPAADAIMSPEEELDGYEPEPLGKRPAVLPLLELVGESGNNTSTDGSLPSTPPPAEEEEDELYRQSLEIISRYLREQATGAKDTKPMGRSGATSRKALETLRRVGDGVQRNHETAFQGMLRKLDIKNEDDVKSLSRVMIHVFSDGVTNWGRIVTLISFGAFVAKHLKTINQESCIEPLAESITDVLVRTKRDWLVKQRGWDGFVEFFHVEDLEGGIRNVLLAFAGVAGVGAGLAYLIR
# From the text: Bcl-XL, and Mcl-1, respectively.
# [8] = 30 mg/kg po qd, p<0.05 vs vehicle
# [9] = 100 mg/kg po qd, p<0.0001 vs vehicle
Compound,"number of lymphocytes in PBMC (total, T, CD4+ T, CD8+ T, double-negative T, B, activated B, plasmablasts, plasma cells, CD138+ cells) ([1]; week 18, PBMC (FIG. 6))","number of pro-inflammatory CD4+ T cells and double-negative T cells in the kidney ([1]; week 18, kidney (FIG. 8))","number of lymphocytes in spleen (total, T, CD4+ T, CD8+ T, double-negative T, B, activated B, plasmablasts, plasma cells, CD138+ cells) ([1]; week 18, spleen (FIG. 7))","serum anti-dsDNA autoantibody level, % of the vehicle group [2, 8]","serum anti-dsDNA autoantibody level, % of the vehicle group [2, 9]","urine protein level [3, 8]","urine protein level [3, 9]",lymphadenopathy score (0 to 6) ([4]; 30 mg/kg po qd),lymphadenopathy score (0 to 6) ([4]; 100 mg/kg po qd),skin lesion score ([5]; 30 mg/kg po qd),skin lesion score ([5]; 100 mg/kg po qd),"individual and total lupus nephritis pathological scores, significance ([6]; 100 mg/kg po qd)","pathological score (glomerulonephritis, interstitial nephritis, vasculitis) ([6]; 30 and 100 mg/kg po qd)",Kd [7]
"O=C(NS(=O)(=O)c1ccc(NC[C@H]2COCCO2)c([N+](=O)[O-])c1)c1ccc(N2CCN(CC3=C(c4ccc(Cl)cc4)CC4(CCC4)CC3)CC2)cc1Oc1cnc2[nH]ccc2c1 [Compound 1, (S)-N-((4-(((1,4-dioxan-2-yl)methyl)amino)-3-nitrophenyl)sulfonyl)-2-((1H-pyrrolo[2,3-b]pyridin-5-yl)oxy)-4-(4-((6-(4-chlorophenyl)spiro[3.5]non-6-en-7-yl)methyl)piperazin-1-yl)benzamide]",significantly reduced,significantly reduced,significantly reduced,76.8%,56.4%,536.1 ± 146.8 mg/L,266.8 ± 37.7 mg/L,2.7±0.4,1.6±0.4,significantly reduced,significantly reduced,Statistical significance was achieved,dose-dependently reduced,
"Flu-BID: Fluorescein labeled BID (79-99) peptide, fluorescent probe in FP assay for Mcl-1",,,,,,,,,,,,,,6.9 ± 0.9 nM
